We go through five molecules from US5646138A, “Contignasterol compounds and pharmaceutical compositions comprising the same” (University of British Columbia, priority 1992, dated 1997).

“Also recorded” adds a separate entry of the source.

In test [1] the test system is allergen-induced challenge. Put plainly: relative potencies of different isomers of contignasterol against allergen-induced challenge. An excerpt:
Table 4 illustrates the relative potencies of different isomers of contignasterol against allergen-induced challenge.

Another test deals with rat mast cells. The conditions noted are these: induced by anti-IgE; cited from earlier work.
A further test has as its system tracheal tissues. Put plainly: ovalbumine (antigen)-induced contraction of tracheal tissues from sensitized guinea pigs. The note with it: antigen ovalbumine (OA). It is filed as cell-based, guinea pig. An excerpt:
We have used the contignasterol as defined in paragraph one of the Summary to block bronchoconstriction induced in guinea pigs. Guinea pigs were sensitized to ovalbumine (OA) that can serve as an antigen. The trachea from these animals after exposure to the antigen (OA) contracted in a similar manner as to in vivo situation.

The subject of test [2] is platelets. The test is described as follows: platelet aggregation caused by platelet activating factor (PAF). It counts as cell-based. An excerpt:
(§1) PAF is a local mediator of thrombosis. Similarly, collagen exposure of vessel walls leads to the formation of […] clot in the vessels. Therefore, prevention of the formation of blood clots has direct implication in the treatment of thrombosis and associated cardiovascular diseases.
(§2) PAF and collagen were used at their maximal concentrations which induced 100% aggregation of platelets.

Test [3] concerns platelets. The test is described as follows: platelet aggregation caused by collagen. It is filed as cell-based.
Text: as §1, §2

In test [1], `COC1CC(C(C)C)CC([C@@H](C)[C@H]2CC(=O)[C@@H]3[C@@H]4[C@@H](O)[C@H](O)[C@H]5[C@@H](O)[C@H](O)CC[C@]5(C)[C@H]4CC[C@]23C)O1` (some centres unmarked) [Compound 3, Methyl-acetal Contignasterol] had an inhibition at 10 µM of 12%.
In the case of `CC(C)C[C@]1(O)C[C@@H](C)[C@H]2[C@@H]1C(=O)[C@@H]1[C@@H]3[C@@H](O)[C@H](O)[C@H]4C[C@H](O)[C@@H](O)[C@@H](O)[C@]4(C)[C@H]3CC[C@]21C` [xestobergsterol B, 23S-16β, 23-cyclo-1β, 2β, 3α, 6α, 7β, 23-hexahydroxy-5α, 14β-cholestan-15-one], the “inhibition of histamine release from rat mast cells (in words)” value in the test with rat mast cells is on record as “potent inhibitors of histamine release”.
Molecule `CC(C)C1CC(O)OC([C@@H](C)[C@H]2CC(=O)[C@H]3[C@@H]4[C@@H](O)[C@H](O)[C@H]5[C@@H](O)[C@H](O)CC[C@]5(C)[C@H]4CC[C@]23C)C1` (some centres unmarked) [Compound 2, 14-epicontignasterol] showed an inhibition at 10 µM in test [1] of 25%.
`CC(C)C1CC(O)OC([C@@H](C)[C@H]2CC(=O)[C@@H]3[C@@H]4[C@@H](O)[C@H](O)[C@H]5[C@@H](O)[C@H](O)CC[C@]5(C)[C@H]4CC[C@]23C)C1` (some centres unmarked) [Compound 1, contignasterol] returned an inhibition at 10 µM in test [1] of 43%. Further, the “contraction of trachea pretreated with contignasterol after exposure to antigen (in words)” value in the test on tracheal tissues is on record as “did not significantly contract; also recorded: inhibited airway smooth muscle contraction”. In addition, in the test with platelets [2], the “aggregation of platelets caused by PAF (in words)” value is on record as “inhibited aggregation of platelets”. For the same molecule, the “aggregation of platelets caused by collagen (in words)” value in the test with platelets [3] is listed as “inhibited aggregation of platelets”.
Consider `CC(C)C[C@]1(O)C[C@@H](C)[C@H]2[C@@H]1C(=O)[C@@H]1[C@@H]3[C@@H](O)[C@H](O)[C@H]4C[C@H](O)CC[C@]4(C)[C@H]3CC[C@]21C` [xestobergsterol A, 23S-16β, 23-cyclo-3α, 6α, 7β, 23-tetrahydroxy-5α, 14β-cholestan-15-one], for which the “inhibition of histamine release from rat mast cells (in words)” value with rat mast cells is “potent inhibitors of histamine release”.

Usually inhibition stands for the change of the read-out against control, counted positive when it falls.
